# What was measured:
# [1] = system: antibodies in sera from SARS patients (sera 1a, 1b, 2, 6, 37, 62, London, SARS-yellow, SARS-green); type: binding, human; parameters: Binding of serum 6 to linear peptides of protein X1 of SARS-CoV Urbani / Binding of serum 37 to linear peptides of protein X1 of SARS-CoV Urbani / Binding of serum 6 to looped/cyclic peptide (PEPSCAN-ELISA) / Binding of serum 37 to looped/cyclic peptide (PEPSCAN-ELISA) / Binding of serum 37 to looped/cyclic peptides of protein X1 of SARS-CoV Urbani / Binding of serum 6 to linear peptides of protein X2 / Binding of serum 37 to linear peptides of protein X2 / Binding of serum 37 to looped/cyclic peptides of protein X2 of SARS-CoV Urbani / Binding of serum 6 to linear peptides of protein M of SARS-CoV Urbani / Binding of serum 37 to linear peptides of protein M of SARS-CoV Urbani / Binding of serum 6 to looped/cyclic peptides of protein M of SARS-CoV Urbani / Binding of serum 37 to looped/cyclic peptides of protein M of SARS-CoV Urbani / Binding of serum 6 to linear peptides of protein X3 of SARS-CoV Urbani / Binding of serum 37 to linear peptides of protein X3 of SARS-CoV Urbani / Binding of serum 37 to looped/cyclic peptides of protein X3 of SARS-CoV Urbani / Binding of serum 6 to linear peptides of protein X4 of SARS-CoV Urbani / Binding of serum 37 to linear peptides of protein X4 of SARS-CoV Urbani / Binding of serum 37 to looped/cyclic peptides of protein X4 of SARS-CoV Urbani / Binding of serum 6 to linear peptides of protein X5 of SARS-CoV Urbani / Binding of serum 37 to linear peptides of protein X5 of SARS-CoV Urbani / Binding of serum 37 to looped/cyclic peptides of protein X5 of SARS-CoV Urbani / Binding of serum 6 to linear peptides of protein N of SARS-CoV Urbani / Binding of serum 37 to linear peptides of protein N of SARS-CoV Urbani / Binding of serum 6 to linear peptide (PEPSCAN-ELISA) / Binding of serum 1a to looped/cyclic peptides of protein N of SARS-CoV Urbani / Binding of serum 1b to looped/cyclic peptides of protein N of SARS-CoV Urbani / Binding of serum 2 to looped/cyclic peptides of protein N of SARS-CoV Urbani / Binding of serum 6 to looped/cyclic peptides of protein N of SARS-CoV Urbani / Binding of serum 37 to looped/cyclic peptides of protein N of SARS-CoV Urbani / Binding of serum 62 to looped/cyclic peptides of protein N of SARS-CoV Urbani / Binding of serum London to looped/cyclic peptides of protein N of SARS-CoV Urbani / Binding of serum SARS-green to looped/cyclic peptides of protein N of SARS-CoV Urbani: unit not given here
# [2] = system: control sera (pooled serum of ten healthy LUMC hospital workers; commercial negative donor pooled serum from the Dutch bloodbank); type: binding, human; parameters: Binding of Control serum LUMC to linear peptides / Binding of Control serum Blood-bank to linear peptides / Binding of Control serum LUMC to looped peptides / Binding of Control Serum Blood-Bank to Looped peptides / Binding of Control serum LUMC to linear peptides of the protein M of SARS-CoV Urbani / Binding of Control serum Blood-bank to linear peptides of the protein M of SARS-CoV Urbani / Binding of Control serum LUMC to looped peptides of the protein M of SARS-CoV Urbani / Binding of Control Serum Blood-Bank to Looped peptides of the protein M of SARS-CoV Urbani: unit not given here
# [3] = system: rabbit serum obtained by immunizing a rabbit with the SARS-CoV strain Frankfurt 1; type: binding; parameters: Binding of a rabbit serum to linear peptides / Binding of a rabbit serum to looped peptides / Rabbit serum linear peptides / Rabbit serum looped peptides / Binding of a rabbit serum to linear peptides of protein N of SARS-CoV Urbani (Rabbit serum linear peptides) / Binding of a rabbit serum to looped/cyclic peptides of protein N of SARS-CoV Urbani (Rabbit serum looped peptides): unit not given here
sequence,measurement,setting,value
TRSMWSFNPETNILL,Binding of serum 1a to linear peptides of protein M of SARS-CoV Urbani,[1],0.8
same,Binding of serum 1a to looped/cyclic peptides of protein M of SARS-CoV Urbani,[1],1.0
same,Binding of serum 1b to linear peptides of protein M of SARS-CoV Urbani,[1],0.7
same,Binding of serum 1b to looped/cyclic peptides of protein M of SARS-CoV Urbani,[1],0.4
same,Binding of serum 2 to linear peptides of protein M of SARS-CoV Urbani,[1],0.5
same,Binding of serum 2 to looped/cyclic peptides of protein M of SARS-CoV Urbani,[1],0.8
same,Binding of serum 6 to linear peptides of protein M of SARS-CoV Urbani,[1],0.5
same,Binding of serum 6 to looped/cyclic peptides of protein M of SARS-CoV Urbani,[1],0.9
same,Binding of serum 37 to linear peptides of protein M of SARS-CoV Urbani,[1],0.5
same,Binding of serum 37 to looped/cyclic peptides of protein M of SARS-CoV Urbani,[1],1.1
same,Binding of serum 62 to linear peptides of protein M of SARS-CoV Urbani,[1],0.4
same,Binding of serum 62 to looped/cyclic peptides of protein M of SARS-CoV Urbani,[1],1.1
same,Binding of serum London to linear peptides of protein M of SARS-CoV Urbani,[1],0.3
same,Binding of serum London to looped/cyclic peptides of protein M of SARS-CoV Urbani,[1],0.3
same,Binding of serum SARS-green to linear peptides of protein M of SARS-CoV Urbani,[1],0.5
same,Binding of serum SARS-green to looped/cyclic peptides of protein M of SARS-CoV Urbani,[1],0.5
same,Binding of serum SARS-yellow to linear peptides of protein M of SARS-CoV Urbani,[1],0.3
same,Binding of serum SARS-yellow to looped/cyclic peptides of protein M of SARS-CoV Urbani,[1],0.7
same,Binding of Control Serum Blood-Bank to Looped peptides of the protein M of SARS-CoV Urbani,[2],0.9
same,Binding of Control serum Blood-bank to linear peptides of the protein M of SARS-CoV Urbani,[2],0.7
same,Binding of Control serum LUMC to linear peptides of the protein M of SARS-CoV Urbani,[2],0.8
same,Binding of Control serum LUMC to looped peptides of the protein M of SARS-CoV Urbani,[2],0.9
same,Rabbit serum linear peptides,[3],0.1
same,Rabbit serum looped peptides,[3],0.3
TSCELYHYQECVRGT,Binding of serum 1a to linear peptides of protein X4 of SARS-CoV Urbani,[1],0.7
same,Binding of serum 1a to looped/cyclic peptides of protein X4 of SARS-CoV Urbani,[1],0.9
same,Binding of serum 1b to linear peptides of protein X4 of SARS-CoV Urbani,[1],0.6
same,Binding of serum 1b to looped/cyclic peptides of protein X4 of SARS-CoV Urbani,[1],0.9
same,Binding of serum 2 to linear peptides of protein X4 of SARS-CoV Urbani,[1],0.3
same,Binding of serum 2 to looped/cyclic peptides of protein X4 of SARS-CoV Urbani,[1],0.7
same,Binding of serum 6 to linear peptides of protein X4 of SARS-CoV Urbani,[1],0.7
same,Binding of serum 6 to looped/cyclic peptides of protein X4 of SARS-CoV Urbani,[1],0.9
same,Binding of serum 37 to linear peptides of protein X4 of SARS-CoV Urbani,[1],0.7
same,Binding of serum 37 to looped/cyclic peptides of protein X4 of SARS-CoV Urbani,[1],0.7
same,Binding of serum 62 to linear peptides of protein X4 of SARS-CoV Urbani,[1],0.8
same,Binding of serum 62 to looped/cyclic peptides of protein X4 of SARS-CoV Urbani,[1],0.7
same,Binding of serum London to linear peptides of protein X4 of SARS-CoV Urbani,[1],0.7
same,Binding of serum London to looped/cyclic peptides of protein X4 of SARS-CoV Urbani,[1],0.4
same,Binding of serum SARS-green to linear peptides of protein X4 of SARS-CoV Urbani,[1],0.5
same,Binding of serum SARS-green to looped/cyclic peptides of protein X4 of SARS-CoV Urbani,[1],0.7
same,Binding of serum SARS-yellow to linear peptides of protein X4 of SARS-CoV Urbani,[1],0.3
same,Binding of serum SARS-yellow to looped/cyclic peptides of protein X4 of SARS-CoV Urbani,[1],0.4
same,Binding of Control Serum Blood-Bank to Looped peptides,[2],0.8
same,Binding of Control serum Blood-bank to linear peptides,[2],0.6
same,Binding of Control serum LUMC to linear peptides,[2],0.6
same,Binding of Control serum LUMC to looped peptides,[2],0.8
same,Rabbit serum linear peptides,[3],0.4
same,Rabbit serum looped peptides,[3],0.2
TSLLKTHRMCKYTQS,Binding of serum 1a to linear peptides of protein X2,[1],0.7
same,Binding of serum 1a to looped/cyclic peptides of protein X2 of SARS-CoV Urbani,[1],0.4
same,Binding of serum 1b to linear peptides of protein X2,[1],0.7
same,Binding of serum 1b to looped/cyclic peptides of protein X2 of SARS-CoV Urbani,[1],0.3
same,Binding of serum 2 to linear peptides of protein X2,[1],0.6
same,Binding of serum 2 to looped/cyclic peptides of protein X2 of SARS-CoV Urbani,[1],0.2
same,Binding of serum 6 to linear peptides of protein X2,[1],0.5
same,Binding of serum 6 to looped/cyclic peptides of protein X2 of SARS-CoV Urbani,[1],0.2
same,Binding of serum 37 to linear peptides of protein X2,[1],0.7
same,Binding of serum 37 to looped/cyclic peptides of protein X2 of SARS-CoV Urbani,[1],0.2
same,Binding of serum 62 to linear peptides of protein X2,[1],0.7
same,Binding of serum 62 to looped/cyclic peptides of protein X2 of SARS-CoV Urbani,[1],0.4
same,Binding of serum London to linear peptides of protein X2,[1],0.5
same,Binding of serum London to looped/cyclic peptides of protein X2 of SARS-CoV Urbani,[1],0.2
same,Binding of serum SARS-green to linear peptides of protein X2,[1],0.6
same,Binding of serum SARS-green to looped/cyclic peptides of protein X2 of SARS-CoV Urbani,[1],0.2
same,Binding of serum SARS-yellow to linear peptides of protein X2,[1],0.8
same,Binding of serum SARS-yellow to looped/cyclic peptides of protein X2 of SARS-CoV Urbani,[1],0.3
same,Binding of Control Serum Blood-Bank to Looped peptides,[2],0.4
same,Binding of Control serum Blood-bank to linear peptides,[2],1.0
same,Binding of Control serum LUMC to linear peptides,[2],0.9
same,Binding of Control serum LUMC to looped peptides,[2],0.4
same,Binding of a rabbit serum to linear peptides,[3],0.4
same,Binding of a rabbit serum to looped peptides,[3],0.4
TSLSLHKLLQTLVLK,Binding of serum 1a to linear peptides of protein X2,[1],0.7
same,Binding of serum 1a to looped/cyclic peptides of protein X2 of SARS-CoV Urbani,[1],0.5
same,Binding of serum 1b to linear peptides of protein X2,[1],0.6
same,Binding of serum 1b to looped/cyclic peptides of protein X2 of SARS-CoV Urbani,[1],0.4
same,Binding of serum 2 to linear peptides of protein X2,[1],0.5
same,Binding of serum 2 to looped/cyclic peptides of protein X2 of SARS-CoV Urbani,[1],0.3
same,Binding of serum 6 to linear peptides of protein X2,[1],1.0
same,Binding of serum 6 to looped/cyclic peptides of protein X2 of SARS-CoV Urbani,[1],0.3
same,Binding of serum 37 to linear peptides of protein X2,[1],0.6
same,Binding of serum 37 to looped/cyclic peptides of protein X2 of SARS-CoV Urbani,[1],0.4
same,Binding of serum 62 to linear peptides of protein X2,[1],0.7
same,Binding of serum 62 to looped/cyclic peptides of protein X2 of SARS-CoV Urbani,[1],0.6
same,Binding of serum London to linear peptides of protein X2,[1],0.6
same,Binding of serum London to looped/cyclic peptides of protein X2 of SARS-CoV Urbani,[1],0.2
same,Binding of serum SARS-green to linear peptides of protein X2,[1],0.7
same,Binding of serum SARS-green to looped/cyclic peptides of protein X2 of SARS-CoV Urbani,[1],0.4
same,Binding of serum SARS-yellow to linear peptides of protein X2,[1],0.6
same,Binding of serum SARS-yellow to looped/cyclic peptides of protein X2 of SARS-CoV Urbani,[1],0.5
same,Binding of Control Serum Blood-Bank to Looped peptides,[2],0.6
same,Binding of Control serum Blood-bank to linear peptides,[2],0.9
same,Binding of Control serum LUMC to linear peptides,[2],0.6
same,Binding of Control serum LUMC to looped peptides,[2],0.6
same,Binding of a rabbit serum to linear peptides,[3],0.2
same,Binding of a rabbit serum to looped peptides,[3],0.5
TSRTLSYYKLGASQR,Binding of serum 1a to linear peptides of protein M of SARS-CoV Urbani,[1],0.7
same,Binding of serum 1a to looped/cyclic peptides of protein M of SARS-CoV Urbani,[1],0.7
same,Binding of serum 1b to linear peptides of protein M of SARS-CoV Urbani,[1],0.7
same,Binding of serum 1b to looped/cyclic peptides of protein M of SARS-CoV Urbani,[1],0.3
same,Binding of serum 2 to linear peptides of protein M of SARS-CoV Urbani,[1],0.7
same,Binding of serum 2 to looped/cyclic peptides of protein M of SARS-CoV Urbani,[1],0.7
same,Binding of serum 6 to linear peptides of protein M of SARS-CoV Urbani,[1],0.9
same,Binding of serum 6 to looped/cyclic peptides of protein M of SARS-CoV Urbani,[1],1.3
same,Binding of serum 37 to linear peptides of protein M of SARS-CoV Urbani,[1],0.7
same,Binding of serum 37 to looped/cyclic peptides of protein M of SARS-CoV Urbani,[1],0.6
same,Binding of serum 62 to linear peptides of protein M of SARS-CoV Urbani,[1],0.5
same,Binding of serum 62 to looped/cyclic peptides of protein M of SARS-CoV Urbani,[1],0.6
same,Binding of serum London to linear peptides of protein M of SARS-CoV Urbani,[1],0.5
same,Binding of serum London to looped/cyclic peptides of protein M of SARS-CoV Urbani,[1],0.7
same,Binding of serum SARS-green to linear peptides of protein M of SARS-CoV Urbani,[1],0.7
same,Binding of serum SARS-green to looped/cyclic peptides of protein M of SARS-CoV Urbani,[1],0.3
same,Binding of serum SARS-yellow to linear peptides of protein M of SARS-CoV Urbani,[1],0.5
same,Binding of serum SARS-yellow to looped/cyclic peptides of protein M of SARS-CoV Urbani,[1],0.9
same,Binding of Control Serum Blood-Bank to Looped peptides of the protein M of SARS-CoV Urbani,[2],0.6
same,Binding of Control serum Blood-bank to linear peptides of the protein M of SARS-CoV Urbani,[2],0.9
same,Binding of Control serum LUMC to linear peptides of the protein M of SARS-CoV Urbani,[2],1.0
same,Binding of Control serum LUMC to looped peptides of the protein M of SARS-CoV Urbani,[2],0.8
same,Rabbit serum linear peptides,[3],0.3
same,Rabbit serum looped peptides,[3],1.1
